SMILES strings stand for the structures.

This test addresses T1, Serotonin 3 (5-HT3) receptor (Rattus norvegicus, UniProt P35563+Q9JJ16).
T1 sequence (P35563 whole entry): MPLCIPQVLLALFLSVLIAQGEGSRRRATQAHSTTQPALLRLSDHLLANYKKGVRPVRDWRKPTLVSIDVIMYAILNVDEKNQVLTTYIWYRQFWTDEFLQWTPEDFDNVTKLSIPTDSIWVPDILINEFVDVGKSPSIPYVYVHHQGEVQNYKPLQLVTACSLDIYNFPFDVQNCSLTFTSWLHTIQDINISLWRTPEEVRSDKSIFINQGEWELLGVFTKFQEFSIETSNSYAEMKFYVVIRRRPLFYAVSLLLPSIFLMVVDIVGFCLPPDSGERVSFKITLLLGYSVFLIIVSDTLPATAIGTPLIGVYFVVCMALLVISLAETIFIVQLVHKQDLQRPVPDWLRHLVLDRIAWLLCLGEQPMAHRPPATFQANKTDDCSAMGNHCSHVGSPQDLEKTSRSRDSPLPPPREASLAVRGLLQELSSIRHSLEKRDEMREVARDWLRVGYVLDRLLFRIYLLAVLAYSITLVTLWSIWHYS
T1 sequence (Q9JJ16 whole entry): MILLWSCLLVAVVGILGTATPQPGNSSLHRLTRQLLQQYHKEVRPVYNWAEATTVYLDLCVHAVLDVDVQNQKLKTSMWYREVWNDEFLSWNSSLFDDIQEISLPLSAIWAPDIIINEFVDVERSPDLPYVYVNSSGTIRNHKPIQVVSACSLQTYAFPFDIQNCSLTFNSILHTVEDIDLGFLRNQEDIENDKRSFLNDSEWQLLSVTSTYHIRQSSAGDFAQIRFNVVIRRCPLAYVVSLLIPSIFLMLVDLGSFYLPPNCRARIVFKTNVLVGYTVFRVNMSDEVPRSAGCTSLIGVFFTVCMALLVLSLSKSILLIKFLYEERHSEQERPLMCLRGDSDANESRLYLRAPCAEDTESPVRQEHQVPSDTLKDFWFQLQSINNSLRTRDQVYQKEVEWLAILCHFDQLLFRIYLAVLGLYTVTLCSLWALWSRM
The test can be described thus: Binding affinity to 5-hydroxytryptamine 3 receptor in rat entorhinal cortex using [3H]-BRL 43694 as radioligand.
In turn, `Nc1ccc2c3c(cccc13)C(=O)N([C@@H]1C[N+]3(CCl)CCC1CC3)C2=O` had an inhibition constant Ki of 328 nM.
For `COc1cc(N)c(Cl)cc1C(=O)N[C@@H]1C[N+]2(CCl)CCC1CC2` the value was 14.8 nM.
Turning to `Nc1ccc2c3c(cccc13)C(=O)N([C@H]1C[N+]3(CCl)CCC1CC3)C2=O`, the Ki amounted to 0.35 nM.
Molecule `COc1cc(N)c(Cl)cc1C(=O)N[C@H]1C[N+]2(CCl)CCC1CC2` registered a Ki of 20.1 nM.

These data come from ChEMBL document CHEMBL1127278, “N-chloromethyl quinuclidinium derivatives: A new class of irreversible ligands for 5-HT3 receptors” (Bioorg Med Chem Lett, 1994).
